Measurements published in US20260223850A1, “SUBSTITUTED PYRROLIDONE COMPOUND, PREPARATION METHOD THEREFOR, COMPOSITION AND APPLICATION THEREOF” (QINGDAO KINGAGROOT CHEMICAL COMPOUND CO., LTD., priority 2023, published 2026).

Key:
Assay type in all cases: in vivo
Huaidao (rice cultivar) = test: Seedling stage sealing experiment for water-seeding (crop safety); details: 120 g a.i./ha, 15 days, fresh weight control rate; for Huaidao (rice cultivar) plant damage level (growth control rate): spray, seedling stage sealing for water-seeding; for Huaidao (rice cultivar) plant damage level: seedling stage sealing
Method in brief: (§1)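 Scores (0 = no effect to 9 = dead) reflect fresh-weight control rate 15 days after spray application in greenhouse at 15, 30, 60 or 120 g a.i./ha, mean of three replicates. Seeds were broadcast and soil-covered in pots held moist in water-filled cultivation boxes.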

Digitaria sanguinalis = test: Seedling stage sealing experiment for water-seeding; details: 120 g a.i./ha, 15 days, fresh weight control rate
Method in brief: as §1

Echinochloa crusgalli = test: as above; details: 120 g a.i./ha, 15 days, fresh weight control rate
Echinochloa phyllopogon = test: as above; details: 120 g a.i./ha, 15 days, fresh weight control rate
Method in brief: as §1

[1] = spray, seedling stage sealing for water-seeding

| Structure (SMILES) | Huaidao (rice cultivar) plant damage level (growth control rate) (Huaidao (rice cultivar)) | Digitaria sanguinalis activity level (growth control rate) (Digitaria sanguinalis; [1]) | Echinochloa crusgalli activity level (growth control rate) (Echinochloa crusgalli; [1]) | Echinochloa phyllopogon activity level (growth control rate) (Echinochloa phyllopogon; [1]) | Huaidao (rice cultivar) plant damage level (Huaidao (rice cultivar)) | Digitaria sanguinalis activity level (growth control rate) (Digitaria sanguinalis; seedling stage sealing) | Echinochloa crusgalli activity level (growth control rate) (Echinochloa crusgalli; seedling stage sealing) | Echinochloa phyllopogon activity level (growth control rate) (Echinochloa phyllopogon; seedling stage sealing) |
| --- | --- | --- | --- | --- | --- | --- | --- | --- |
| CCn1ncc(NC(=O)[C@H]2C(=O)N(C)C[C@@H]2c2cccc(C)c2)c1F [523′] | 0 | 9 | 9 | 6 (Level 6: growth control rate greater than or equal to 70% and less than 80%) | – | – | – | – |
| Cc1cccc([C@H]2CN(C)C(=O)[C@@H]2C(=O)Nc2cnn(C)c2C(F)F)c1 [524′] | 2 (Level 2: growth control rate greater than or equal to 10% and less than 20%) | 9 | 9 | 9 | – | – | – | – |
| CCn1ncc(NC(=O)[C@H]2C(=O)N(C)C[C@@H]2c2cccc(C)c2)c1C(F)(F)F [525′] | 2 (Level 2: growth control rate greater than or equal to 10% and less than 20%) | 9 | 9 | 9 | – | – | – | – |
| Cc1cccc([C@H]2CN(C)C(=O)[C@@H]2C(=O)Nc2cnn(C(C)C)c2C(F)(F)F)c1 [526′] | 0 | 9 | 9 | 6 (Level 6: growth control rate greater than or equal to 70% and less than 80%) | – | – | – | – |
| Cc1cccc([C@H]2CN(C)C(=O)[C@@H]2C(=O)Nc2cnn(C3CC3)c2C(F)(F)F)c1 [527′] | 0 | 9 | 9 | 6 (Level 6: growth control rate greater than or equal to 70% and less than 80%) | – | – | – | – |
| Cc1cccc([C@H]2CN(C)C(=O)[C@@H]2C(=O)Nc2cnn(C)c2S(C)(=O)=O)c1 [531′] | 0 | 9 | 9 | 9 | – | – | – | – |
| CO/N=C/c1c(NC(=O)[C@H]2C(=O)N(C)C[C@@H]2c2cccc(C)c2)cnn1C [532′] | 0 | 9 | 9 | 6 (Level 6: growth control rate greater than or equal to 70% and less than 80%) | – | – | – | – |
| CCn1ncc(NC(=O)[C@H]2C(=O)N(C)C[C@@H]2c2cccc(C(F)(F)F)c2)c1F [533′] | 0 | 9 | 9 | 9 | – | – | – | – |
| CCn1ncc(NC(=O)[C@H]2C(=O)N(C)C[C@@H]2c2cccc(C(F)(F)F)c2)c1C(F)(F)F [535′] | 0 | 9 | 9 | 9 | – | – | – | – |
| CN1C[C@H](c2cccc(C(F)(F)F)c2)[C@@H](C(=O)Nc2cnn(C)c2[S+](C)[O-])C1=O (stereo partly drawn) [539′] | 0 | 6 (Level 6: growth control rate greater than or equal to 70% and less than 80%) | 9 | – | – | – | – | – |
| COCn1ncc(NC(=O)[C@H]2C(=O)N(C)C[C@@H]2c2cccc(C(F)(F)F)c2)c1C1CC1 [540′] | 0 | 9 | 9 | 9 | – | – | – | – |
| Cc1cc(C)cc([C@H]2CN(C)C(=O)[C@@H]2C(=O)Nc2cnn(C)c2C(F)F)c1 [546′] | 0 | 9 | 9 | 9 | – | – | – | – |
| Cc1cc(C)cc([C@H]2CN(C)C(=O)[C@@H]2C(=O)Nc2cnn(C(C)C)c2C(F)(F)F)c1 [547′] | 0 | 9 | 9 | 9 | – | – | – | – |
| Cc1cc(C)cc([C@H]2CN(C)C(=O)[C@@H]2C(=O)Nc2cnn(C3CC3)c2C(F)(F)F)c1 [548′] | 0 | 9 | 9 | 6 (Level 6: growth control rate greater than or equal to 70% and less than 80%) | – | – | – | – |
| Cc1cc(C)cc([C@H]2CN(C)C(=O)[C@@H]2C(=O)Nc2cnn(C)c2[S+](C)[O-])c1 (stereo partly drawn) [552′] | 0 | 9 | 9 | – | – | – | – | – |
| COCc1c(NC(=O)[C@H]2C(=O)N(C)C[C@@H]2c2cc(C)cc(C)c2)cnn1C [553′] | 2 (Level 2: growth control rate greater than or equal to 10% and less than 20%) | 9 | 9 | – | – | – | – | – |

| Structure (SMILES) | Huaidao (rice cultivar) plant damage level (growth control rate) (Huaidao (rice cultivar)) | Digitaria sanguinalis activity level (growth control rate) (Digitaria sanguinalis; [1]) | Echinochloa crusgalli activity level (growth control rate) (Echinochloa crusgalli; [1]) | Echinochloa phyllopogon activity level (growth control rate) (Echinochloa phyllopogon; [1]) | Huaidao (rice cultivar) plant damage level (Huaidao (rice cultivar)) | Digitaria sanguinalis activity level (growth control rate) (Digitaria sanguinalis; seedling stage sealing) | Echinochloa crusgalli activity level (growth control rate) (Echinochloa crusgalli; seedling stage sealing) | Echinochloa phyllopogon activity level (growth control rate) (Echinochloa phyllopogon; seedling stage sealing) |
| --- | --- | --- | --- | --- | --- | --- | --- | --- |
| CN1C[C@H](c2cc(F)cc(Cl)c2)[C@@H](C(=O)Nc2cnn(C(F)F)c2Cl)C1=O [554′] | 0 | 9 | 9 | 9 | – | – | – | – |
| CN1C[C@H](c2cc(F)cc(Cl)c2)[C@@H](C(=O)Nc2cnn(C)c2C2CC2)C1=O [555′] | 0 | 9 | 9 | 9 | – | – | – | – |
| CN1C[C@H](c2cc(F)cc(C(F)F)c2)[C@@H](C(=O)Nc2cnn(C)c2Cl)C1=O [556′] | 2 (Level 2: growth control rate greater than or equal to 10% and less than 20%) | 9 | 9 | 9 | – | – | – | – |
| Cc1cc([C@H]2CN(C)C(=O)[C@@H]2C(=O)Nc2cnn(C(F)F)c2Cl)cc(C(F)(F)F)c1 [560′] | 0 | 9 | 9 | 9 | – | – | – | – |
| Cc1cc([C@H]2CN(C)C(=O)[C@@H]2C(=O)Nc2cnn(C)c2C2CC2)cc(C(F)(F)F)c1 [561′] | 1 (Level 1: growth control rate less than 10%) | 9 | 9 | 9 | – | – | – | – |
| COc1cccc(C2CN(C)C(=O)C2C(=O)Nc2cnn(C)c2Cl)c1 (stereo not drawn) [Compound 28] | – | – | – | – | 0 | 9 | 9 | 9 |
| CC(C)Oc1cccc(C2CN(C)C(=O)C2C(=O)Nc2cnn(C)c2Cl)c1 (stereo not drawn) [Compound 29] | – | – | – | – | 0 | 9 | 9 | 9 |
| CN1CC(c2ccc(F)c(F)c2)C(C(=O)Nc2cnn(C)c2Cl)C1=O (stereo not drawn) [Compound 116] | – | – | – | – | – | 9 | 7 (Level 7: growth control rate greater than or equal to 80% and less than 90%) | 6 (Level 6: growth control rate greater than or equal to 70% and less than 80%) |
| CN1CC(c2cccc(C(F)(F)F)c2)C(C(=O)Nc2cnn(C)c2F)C1=O (stereo not drawn) [Compound 119] | – | – | – | – | 0 | 9 | 9 | 9 |
| CN1CC(c2cccc(C(F)(F)F)c2)C(C(=O)Nc2cnn(C)c2Br)C1=O (stereo not drawn) [Compound 120] | – | – | – | – | 0 | 9 | 9 | 9 |
| CN1CC(c2cccc(C(F)(F)F)c2)C(C(=O)Nc2cnn(C(F)F)c2)C1=O (stereo not drawn) [Compound 159] | – | – | – | – | – | 9 | 7 (Level 7: growth control rate greater than or equal to 80% and less than 90%) | 6 (Level 6: growth control rate greater than or equal to 70% and less than 80%) |
| CN1CC(c2ccc(C(F)(F)F)cc2)C(C(=O)Nc2cnn(C)c2Cl)C1=O (stereo not drawn) [Compound 249] | – | – | – | – | – | 9 | 8 (Level 8: growth control rate greater than or equal to 90% and less than 100%) | 8 (Level 8: growth control rate greater than or equal to 90% and less than 100%) |
| CCn1cc(NC(=O)C2C(=O)N(C)CC2c2cccc(C(F)(F)F)c2)cn1 (stereo not drawn) [Compound 456] | 0 | 9 | 7 (Level 7: growth control rate greater than or equal to 80% and less than 90%) | – | – | – | – | – |
| CN1CC(c2cccc(C(F)(F)F)c2)C(C(=O)Nc2cn(C)nc2C(F)F)C1=O (stereo not drawn) [Compound 457] | 0 | 9 | – | – | – | – | – | – |
| CN1CC(c2ccc(C(F)(F)F)cc2)C(C(=O)Nc2c[nH]nc2Cl)C1=O (stereo not drawn) [Control compound A, reference compound] | – | 0 | 0 | 0 | – | – | – | – |
